Test results from ChEMBL document CHEMBL5625170, “Design, synthesis, and biological evaluation of novel penindolone derivatives as potential inhibitors of hemagglutinin-mediated membrane fusion” (Eur J Med Chem, 2023).

Tested on: Influenza A virus
Assay: Anti-viral activity against Influenza A virus amantadine-resistant strain (A/Puerto Rico/8/34) infected in MDCK cells assessed as inhibition of virus cytopathic effect measured after 48 hrs by crystal violet staining based assay
Type: functional, organism-based
Conditions: A/Puerto Rico/8/34, MDCK

Compound	IC50
CC(=O)c1cc(C)c(O)c(Cc2[nH]c3ccccc3c2Cc2c(O)c(C)cc(C(C)=O)c2O)c1O	25.5 µM
CC(=O)c1cc(C)c(O)c(Cc2[nH]c3ccc(C)cc3c2Cc2c(O)c(C)cc(C(C)=O)c2O)c1O	20.6 µM
CC(=O)c1cc(C)c(O)c(Cc2[nH]c3ccc(-c4ccc5ncccc5c4)cc3c2Cc2c(O)c(C)cc(C(C)=O)c2O)c1O	18.5 µM
COc1cccc(OC)c1-c1ccc2[nH]c(Cc3c(O)c(C)cc(C(C)=O)c3O)c(Cc3c(O)c(C)cc(C(C)=O)c3O)c2c1	21 µM
COc1cccc(OC)c1-c1ccc2c(Cc3c(O)c(C)cc(C(C)=O)c3O)c(Cc3c(O)c(C)cc(C(C)=O)c3O)[nH]c2c1	19.5 µM
C=CCn1c(Cc2c(O)c(C)cc(C(C)=O)c2O)c(Cc2c(O)c(C)cc(C(C)=O)c2O)c2ccccc21	> 30 µM
CC(=O)c1cc(C)c(O)c(Cc2[nH]c3ccc(-c4cc(C(F)(F)F)cc(C(F)(F)F)c4)cc3c2Cc2c(O)c(C)cc(C(C)=O)c2O)c1O	> 30 µM
CC(=O)c1cc(C)c(O)c(Cc2[nH]c3ccc(-c4cc(C)cc(C)c4)cc3c2Cc2c(O)c(C)cc(C(C)=O)c2O)c1O	13.5 µM
CC(=O)c1cc(C)c(O)c(Cc2[nH]c3cc(-c4ccc5c(c4)CCO5)ccc3c2Cc2c(O)c(C)cc(C(C)=O)c2O)c1O	> 30 µM
COc1ccc2cc(-c3ccc4c(Cc5c(O)c(C)cc(C(C)=O)c5O)c(Cc5c(O)c(C)cc(C(C)=O)c5O)[nH]c4c3)ccc2c1	23.3 µM
CC(=O)c1cc(C)c(O)c(Cc2c(Cc3c(O)c(C)cc(C(C)=O)c3O)n(Cc3ccc(Cl)cc3)c3ccccc23)c1O	> 30 µM
CC(=O)c1cc(C)c(O)c(Cc2[nH]c3cc(-c4c5ccccc5c(-c5ccccc5)c5ccccc45)ccc3c2Cc2c(O)c(C)cc(C(C)=O)c2O)c1O	> 30 µM
CC(=O)c1cc(C)c(O)c(Cc2[nH]c3cc(-c4cccc(F)c4)ccc3c2Cc2c(O)c(C)cc(C(C)=O)c2O)c1O	> 30 µM
CC(=O)c1cc(C)c(O)c(Cc2[nH]c3ccc(-c4ccc(C)cc4)cc3c2Cc2c(O)c(C)cc(C(C)=O)c2O)c1O	15.5 µM
CC(=O)c1cc(C)c(O)c(Cc2[nH]c3cc(-c4cccc(O)c4)ccc3c2Cc2c(O)c(C)cc(C(C)=O)c2O)c1O	> 30 µM
COc1cc(-c2ccc3c(Cc4c(O)c(C)cc(C(C)=O)c4O)c(Cc4c(O)c(C)cc(C(C)=O)c4O)[nH]c3c2)cc(OC)c1OC	20.1 µM
CC(=O)c1cc(C)c(O)c(Cc2[nH]c3ccc(-c4cccc(O)c4)cc3c2Cc2c(O)c(C)cc(C(C)=O)c2O)c1O	> 30 µM
CC(=O)c1cc(C)c(O)c(Cc2[nH]c3cc(-c4ccc(Cl)cc4)ccc3c2Cc2c(O)c(C)cc(C(C)=O)c2O)c1O	> 30 µM
CSc1ccc(-c2ccc3[nH]c(Cc4c(O)c(C)cc(C(C)=O)c4O)c(Cc4c(O)c(C)cc(C(C)=O)c4O)c3c2)cc1	17.5 µM
CC(=O)c1cc(C)c(O)c(Cc2[nH]c3ccc(-c4ccccc4F)cc3c2Cc2c(O)c(C)cc(C(C)=O)c2O)c1O	> 30 µM
COc1ccc(-c2ccc3c(Cc4c(O)c(C)cc(C(C)=O)c4O)c(Cc4c(O)c(C)cc(C(C)=O)c4O)[nH]c3c2)cc1OC	19.7 µM
CC(=O)c1cc(C)c(O)c(Cc2c(Cc3c(O)c(C)cc(C(C)=O)c3O)n(Cc3ccccc3)c3ccccc23)c1O	> 30 µM
CC(=O)c1cc(C)c(O)c(Cc2[nH]c3cc(-c4cc(C(C)(C)C)cc(C(C)(C)C)c4)ccc3c2Cc2c(O)c(C)cc(C(C)=O)c2O)c1O	26.8 µM

Compound	IC50
CC(=O)c1cc(C)c(O)c(Cc2[nH]c3ccc(-c4c5ccccc5cc5ccccc45)cc3c2Cc2c(O)c(C)cc(C(C)=O)c2O)c1O	6.7 µM
CC(=O)c1cc(C)c(O)c(Cc2[nH]c3ccc(Br)cc3c2Cc2c(O)c(C)cc(C(C)=O)c2O)c1O	25.2 µM
CC(=O)c1cc(C)c(O)c(Cc2[nH]c3ccc(-c4c5ccccc5c(-c5ccccc5)c5ccccc45)cc3c2Cc2c(O)c(C)cc(C(C)=O)c2O)c1O	> 30 µM
CC(=O)c1cc(C)c(O)c(Cc2[nH]c3cc(-c4ccccc4)ccc3c2Cc2c(O)c(C)cc(C(C)=O)c2O)c1O	23.4 µM
COc1ccc(Cn2c(Cc3c(O)c(C)cc(C(C)=O)c3O)c(Cc3c(O)c(C)cc(C(C)=O)c3O)c3ccccc32)cc1	> 30 µM
CC(=O)c1cc(C)c(O)c(Cc2[nH]c3cc(-c4ccc5ccccc5c4)ccc3c2Cc2c(O)c(C)cc(C(C)=O)c2O)c1O	26 µM
CC(=O)c1cc(C)c(O)c(Cc2[nH]c3ccc(-c4cc(C(C)(C)C)cc(C(C)(C)C)c4)cc3c2Cc2c(O)c(C)cc(C(C)=O)c2O)c1O	> 30 µM
CC(=O)c1cc(C)c(O)c(Cc2[nH]c3cc(-c4ccc(C)cc4)ccc3c2Cc2c(O)c(C)cc(C(C)=O)c2O)c1O	24.1 µM
CC(=O)c1cc(C)c(O)c(Cc2[nH]c3cc(/C=C/c4ccccc4)ccc3c2Cc2c(O)c(C)cc(C(C)=O)c2O)c1O	> 30 µM
CC(=O)c1cc(C)c(O)c(Cc2[nH]c3ccc(-c4ccc5ccccc5c4)cc3c2Cc2c(O)c(C)cc(C(C)=O)c2O)c1O	20.7 µM
CC(=O)c1cc(C)c(O)c(Cc2[nH]c3ccc(-c4ccc5c(c4)CCO5)cc3c2Cc2c(O)c(C)cc(C(C)=O)c2O)c1O	> 30 µM
CC(=O)c1cc(C)c(O)c(Cc2[nH]c3cc(-c4ccc5cccnc5c4)ccc3c2Cc2c(O)c(C)cc(C(C)=O)c2O)c1O	> 30 µM
CC(=O)c1cc(C)c(O)c(Cc2[nH]c3cc(-c4cc(C(F)(F)F)cc(C(F)(F)F)c4)ccc3c2Cc2c(O)c(C)cc(C(C)=O)c2O)c1O	> 30 µM
COc1ccc(-c2ccc3[nH]c(Cc4c(O)c(C)cc(C(C)=O)c4O)c(Cc4c(O)c(C)cc(C(C)=O)c4O)c3c2)cc1	16.3 µM
CC(=O)c1cc(C)c(O)c(Cc2[nH]c3cc(-c4ccsc4)ccc3c2Cc2c(O)c(C)cc(C(C)=O)c2O)c1O	> 30 µM
COc1ccc2[nH]c(Cc3c(O)c(C)cc(C(C)=O)c3O)c(Cc3c(O)c(C)cc(C(C)=O)c3O)c2c1	15.9 µM
CC(=O)c1cc(C)c(O)c(Cc2[nH]c3ccc(-c4ccc(C(F)(F)F)cc4)cc3c2Cc2c(O)c(C)cc(C(C)=O)c2O)c1O	21.9 µM
CC(=O)c1cc(C)c(O)c(Cc2c(Cc3c(O)c(C)cc(C(C)=O)c3O)n(N)c3ccccc23)c1O	> 30 µM
CC(=O)c1cc(C)c(O)c(Cc2[nH]c3cc(-c4ccc(F)cc4)ccc3c2Cc2c(O)c(C)cc(C(C)=O)c2O)c1O	20.6 µM
CC(=O)c1cc(C)c(O)c(Cc2[nH]c3ccc(-c4csc5ccccc45)cc3c2Cc2c(O)c(C)cc(C(C)=O)c2O)c1O	23.4 µM
CC(=O)c1cc(C)c(O)c(Cc2[nH]c3cc(-c4c5ccccc5cc5ccccc45)ccc3c2Cc2c(O)c(C)cc(C(C)=O)c2O)c1O	8.3 µM
CSc1ccc(-c2ccc3c(Cc4c(O)c(C)cc(C(C)=O)c4O)c(Cc4c(O)c(C)cc(C(C)=O)c4O)[nH]c3c2)cc1	9.1 µM
CC(=O)c1cc(C)c(O)c(Cc2[nH]c3cc(-c4ccc5c(c4)OCCO5)ccc3c2Cc2c(O)c(C)cc(C(C)=O)c2O)c1O	9.1 µM

Compound	IC50
CC(=O)c1cc(C)c(O)c(Cc2[nH]c3cc(-c4ccccc4F)ccc3c2Cc2c(O)c(C)cc(C(C)=O)c2O)c1O	> 30 µM
COc1ccc2cc(-c3ccc4[nH]c(Cc5c(O)c(C)cc(C(C)=O)c5O)c(Cc5c(O)c(C)cc(C(C)=O)c5O)c4c3)ccc2c1	21.2 µM
COc1ccc(-c2ccc3[nH]c(Cc4c(O)c(C)cc(C(C)=O)c4O)c(Cc4c(O)c(C)cc(C(C)=O)c4O)c3c2)cc1OC	18.1 µM
CC(=O)c1cc(C)c(O)c(Cc2[nH]c3ccc(Cl)cc3c2Cc2c(O)c(C)cc(C(C)=O)c2O)c1O	> 30 µM
CC(=O)c1cc(C)c(O)c(Cc2[nH]c3ccc(-c4ccc(Cl)cc4)cc3c2Cc2c(O)c(C)cc(C(C)=O)c2O)c1O	27 µM
CC(=O)c1cc(C)c(O)c(Cc2[nH]c3cc(C)ccc3c2Cc2c(O)c(C)cc(C(C)=O)c2O)c1O	15.1 µM
CC(=O)c1cc(C)c(O)c(Cc2[nH]c3cc(-c4csc5ccccc45)ccc3c2Cc2c(O)c(C)cc(C(C)=O)c2O)c1O	20.9 µM
CC(=O)c1cc(C)c(O)c(Cc2[nH]c3ccc(-c4cccc(F)c4)cc3c2Cc2c(O)c(C)cc(C(C)=O)c2O)c1O	> 30 µM
COc1ccc(-c2ccc3c(Cc4c(O)c(C)cc(C(C)=O)c4O)c(Cc4c(O)c(C)cc(C(C)=O)c4O)[nH]c3c2)cc1	8.7 µM
COc1cc(-c2ccc3[nH]c(Cc4c(O)c(C)cc(C(C)=O)c4O)c(Cc4c(O)c(C)cc(C(C)=O)c4O)c3c2)cc(OC)c1OC	8 µM
CC(=O)c1cc(C)c(O)c(Cc2[nH]c3ccc(F)cc3c2Cc2c(O)c(C)cc(C(C)=O)c2O)c1O	> 30 µM
CC(=O)c1cc(C)c(O)c(Cc2[nH]c3ccc(-c4ccc(F)cc4)cc3c2Cc2c(O)c(C)cc(C(C)=O)c2O)c1O	> 30 µM
CC(=O)c1cc(C)c(O)c(Cc2[nH]c3ccc(-c4ccc5c(c4)OCCO5)cc3c2Cc2c(O)c(C)cc(C(C)=O)c2O)c1O	13 µM
CC(=O)c1cc(C)c(O)c(Cc2[nH]c3ccc(-c4ccsc4)cc3c2Cc2c(O)c(C)cc(C(C)=O)c2O)c1O	> 30 µM
CC(=O)c1cc(C)c(O)c(Cc2[nH]c3ccc(/C=C/c4ccccc4)cc3c2Cc2c(O)c(C)cc(C(C)=O)c2O)c1O	> 30 µM
CC(=O)c1cc(C)c(O)c(Cc2c(Cc3c(O)c(C)cc(C(C)=O)c3O)n(Cc3ccc(F)cc3)c3ccccc23)c1O	> 30 µM
COc1ccc2c(Cc3c(O)c(C)cc(C(C)=O)c3O)c(Cc3c(O)c(C)cc(C(C)=O)c3O)[nH]c2c1	12.6 µM
CC(=O)c1cc(C)c(O)c(Cc2[nH]c3cc(-c4ccc(C(F)(F)F)cc4)ccc3c2Cc2c(O)c(C)cc(C(C)=O)c2O)c1O	25 µM
CC(=O)c1cc(C)c(O)c(Cc2[nH]c3ccc(-c4ccccc4)cc3c2Cc2c(O)c(C)cc(C(C)=O)c2O)c1O	26 µM
CC(=O)c1cc(C)c(O)c(Cc2[nH]c3cc(-c4cc(C)cc(C)c4)ccc3c2Cc2c(O)c(C)cc(C(C)=O)c2O)c1O	10.1 µM
CCOC(=O)C1=C[C@@H](OC(CC)CC)[C@H](NC(C)=O)[C@@H](N)C1 [OSELTAMIVIR]	11.4 µM
